# Measurements as given in patent US9662063B2, “Pain sensory nerve stimulation apparatus” (INTER-UNIVERSITY RESEARCH INSTITUTE CORPORATION NATIONAL …, priority 2011, dated 2017).
# Tested on: C fibers
# Test: Current threshold for C fiber stimulation (anode stimulation) after application of capsaicin in vaseline to subjects
# Format: in vivo
# Conditions: for current threshold: anode stimulation of C fibers
# Excerpt: Even when any one of the above-described configurations of the stimulation electrode 30 is used, at least one of an exogenous algesic substance 60 and a pyrogen 60 is interposed between the stimulation electrode 30 and the contact portion of the living body A, by means of, for example, application (FIG. 1). Examples of the exogenous algesic substance 60 are capsaicin, sanshool, zingerone, camphor, allyl isothiocyanate, and menthol. The exogenous algesic substance is a concept which contains an algesic substance, a phlogogenic substance, and an irritating substance. In the case where the exogenous algesic substance 60 is interposed by means of application, it is preferably applied about 20 minutes before stimulation of the living body. Preferably, the pyrogen 60 warms the stimulation portion of the living body A to about 30° C. by, for example, using heat generation due to an oxidation reaction of a metal. The operating section 24 includes a polarity conversion setting unit. The polarity conversion setting unit can give instructions for causing the polarity switching section 25 which is the electrical polarity converting unit, to convert the electrical polarity. According to the configuration, the electrical polarity of the needle electrode 31 can be set as the anode, and that of the contact electrode 32 can be set as the cathode, or, by contrast, the electrical polarity of the needle electrode 31 can be set as the cathode, and that of the contact electrode 32 can be set as the anode. […] In the case where the polarity switching section 25 sets the electrical polarity of the needle electrode 31 as the cathode, moreover, Aδ fibers can be selectively stimulated. Table 1 indicates results of measurements in which an appropriate amount (a weight ratio of about 0.05 to 0.1 with respect to vaseline) of capsaicin was applied as the exogenous algesic substance to four subjects. Table 1 indicates relationships between the current threshold in the case where the anode stimulation was performed on each subject and C fibers of each subject was stimulated, and the time period elapsed after the application. […] Since an effect due to stimulation was obtained even at a low stimulation intensity (mA), this minimizes the burden on a subject, and realizes the check of the nerve function. It was also confirmed that an effective examination can be conducted without being affected by the skill of the measuring person.
smiles,measurement,setting,value
COc1cc(CNC(=O)CCCC/C=C/C(C)C)ccc1O [capsaicin],current threshold,"Subject 1, 5 minutes after application, capsaicin weight ratio about 0.05 to 0.1 with respect to vaseline",0.10 (mA)
same,current threshold,"Subject 1, 10 minutes after application",0.10 (mA)
same,current threshold,"Subject 1, 15 minutes after application",0.09 (mA)
same,current threshold,"Subject 1, 20 minutes after application",0.09 (mA)
same,current threshold,"Subject 2, 5 minutes after application",0.32 (mA)
same,current threshold,"Subject 2, 10 minutes after application",0.18 (mA)
same,current threshold,"Subject 2, 15 minutes after application",0.13 (mA)
same,current threshold,"Subject 2, 20 minutes after application",0.15 (mA)
same,current threshold reduced to fraction of the normal value,"Subject 2, during 20 minutes after the application",about one half
same,current threshold,"Subject 3, 5 minutes after application",0.14 (mA)
same,current threshold,"Subject 3, 10 minutes after application",0.13 (mA)
same,current threshold,"Subject 3, 20 minutes after application",0.09 (mA)
same,current threshold reduced to fraction of the normal value,"Subject 3, during 20 minutes after the application",about two thirds
same,current threshold,"Subject 4, 5 minutes after application",0.05 (mA)
same,current threshold,"Subject 4, 10 minutes after application",0.04 (mA)
same,current threshold,"Subject 4, 15 minutes after application",0.04 (mA)
same,current threshold,"Subject 4, 20 minutes after application",0.04 (mA)
same,trend of the current threshold,"four subjects, during 20 minutes after the application",downward trend
